Measurements taken from the CheMixHub viscosity set.
± gives the uncertainty stated by the source.

Test: xn = mol fraction of the nth substance listed

Oc1ccc2ccccc2c1 + CCO
viscosity [mPa·s], 101 kPa
Conditions	x1 = 0.03	x1 = 0.06	x1 = 0.09	x1 = 0.12	x1 = 0.15
293.15 K	1.428 ± 0.036	1.684 ± 0.04	1.969 ± 0.045	2.28 ± 0.052	2.641 ± 0.06
303.15 K	1.162 ± 0.031	1.351 ± 0.035	1.588 ± 0.039	1.836 ± 0.043	2.093 ± 0.048
313.15 K	0.975 ± 0.028	1.125 ± 0.031	1.305 ± 0.034	1.487 ± 0.037	1.669 ± 0.04
323.15 K	0.801 ± 0.026	0.92 ± 0.028	1.063 ± 0.03	1.217 ± 0.032	1.374 ± 0.035

CCNCC + CCCCOCCOCCO
viscosity [mPa·s], 100 kPa
Conditions	298.15 K	303.15 K	308.15 K
x2 = 0.05043	0.3695 ± 0.15	0.3487 ± 0.15	0.3286 ± 0.15
x2 = 0.09991	0.457 ± 0.15	0.4294 ± 0.15	0.4036 ± 0.15
x2 = 0.1494	0.5594 ± 0.15	0.5411 ± 0.15	0.4914 ± 0.15
x2 = 0.2	0.699 ± 0.15	0.6487 ± 0.15	0.6022 ± 0.15
x2 = 0.3	1.062 ± 0.15	0.9662 ± 0.15	0.8961 ± 0.15
x2 = 0.4001	1.56 ± 0.15	1.376 ± 0.15	1.288 ± 0.15
x2 = 0.5	2.156 ± 0.15	1.896 ± 0.15	1.722 ± 0.15
x2 = 0.6	2.817 ± 0.15	2.45 ± 0.15	2.215 ± 0.15
x2 = 0.6997	3.484 ± 0.15	3.007 ± 0.15	2.686 ± 0.15
x2 = 0.7998	4.107 ± 0.15	3.511 ± 0.15	3.132 ± 0.15
x2 = 0.9	4.667 ± 0.15	3.966 ± 0.15	3.532 ± 0.15
x2 = 0.9491	4.904 ± 0.15	4.167 ± 0.15	3.705 ± 0.15

CCNCC + CCC(C)O
viscosity [mPa·s], 100 kPa
Conditions	293.15 K	298.15 K	303.15 K	308.15 K	313.15 K	318.15 K	323.15 K
x1 = 0.0221	3.49 ± 0.07	2.91 ± 0.06	2.42 ± 0.05	2.04 ± 0.04	1.73 ± 0.04	1.49 ± 0.03	1.28 ± 0.03
x1 = 0.081	3.02 ± 0.06	2.54 ± 0.05	2.12 ± 0.04	1.82 ± 0.04	1.55 ± 0.03	1.34 ± 0.03	1.18 ± 0.03
x1 = 0.1601	2.49 ± 0.05	2.11 ± 0.04	1.8 ± 0.04	1.56 ± 0.03	1.33 ± 0.03	1.16 ± 0.03	1.049 ± 0.022
x1 = 0.24	2.04 ± 0.04	1.75 ± 0.04	1.51 ± 0.03	1.31 ± 0.03	1.15 ± 0.02	1.01 ± 0.02	0.93 ± 0.02
x1 = 0.3494	1.602 ± 0.034	1.37 ± 0.03	1.17 ± 0.03	1.033 ± 0.022	0.92 ± 0.02	0.83 ± 0.02	0.771 ± 0.017
x1 = 0.4395	1.32 ± 0.03	1.13 ± 0.02	0.98 ± 0.02	0.867 ± 0.019	0.78 ± 0.02	0.71 ± 0.02	0.66 ± 0.02
x1 = 0.5602	1.032 ± 0.022	0.868 ± 0.019	0.754 ± 0.016	0.68 ± 0.02	0.62 ± 0.01	0.574 ± 0.013	0.533 ± 0.012
x1 = 0.65	0.827 ± 0.018	0.712 ± 0.016	0.628 ± 0.014	0.57 ± 0.01	0.528 ± 0.012	0.489 ± 0.011	0.459 ± 0.011
x1 = 0.74	0.662 ± 0.015	0.58 ± 0.01	0.515 ± 0.012	0.48 ± 0.01	0.443 ± 0.01	0.416 ± 0.01	0.389 ± 0.009
x1 = 0.8503	0.496 ± 0.011	0.447 ± 0.01	0.41 ± 0.01	0.38 ± 0.01	0.359 ± 0.009	0.337 ± 0.008	0.318 ± 0.008
x1 = 0.94	0.384 ± 0.009	0.356 ± 0.009	0.335 ± 0.008	0.309 ± 0.008	0.298 ± 0.008	0.284 ± 0.007	0.268 ± 0.007
x2 = 0.0129	0.336 ± 0.008	0.317 ± 0.008	0.3 ± 0.01	0.284 ± 0.007	0.27 ± 0.01	0.257 ± 0.007	0.244 ± 0.007

COCCOCCOCCO + CN(CCO)CCO
viscosity [mPa·s], 101.33 kPa
Conditions	x2 = 0.1004	x2 = 0.2133	x2 = 0.2964	x2 = 0.3993	x2 = 0.4991	x2 = 0.5993	x2 = 0.7001	x2 = 0.8006	x2 = 0.9002
298.15 K	6.741 ± 0.1	8.012 ± 0.12	9.103 ± 0.12	10.85 ± 0.14	13.35 ± 0.15	17.08 ± 0.18	22.81 ± 0.22	31.15 ± 0.27	50.17 ± 0.3
313.15 K	4.491 ± 0.071	5.038 ± 0.074	5.882 ± 0.081	6.508 ± 0.083	7.732 ± 0.091	9.412 ± 0.1	12.03 ± 0.12	15.99 ± 0.14	22.23 ± 0.18
323.15 K	3.445 ± 0.054	3.861 ± 0.057	4.307 ± 0.06	4.93 ± 0.065	5.674 ± 0.069	6.845 ± 0.076	8.383 ± 0.085	10.78 ± 0.099	14.36 ± 0.12

COCCOCCOCCO + CCCO
viscosity [mPa·s], 101 kPa
Conditions	298.15 K	308.15 K	318.15 K
x1 = 0.0134	1.952 ± 0.031	1.526 ± 0.025	1.246 ± 0.02
x1 = 0.0366	1.983 ± 0.031	1.555 ± 0.025	1.273 ± 0.021
x1 = 0.0639	2.034 ± 0.032	1.604 ± 0.026	1.32 ± 0.022
x1 = 0.1165	2.159 ± 0.034	1.692 ± 0.027	1.4 ± 0.023
x1 = 0.1568	2.273 ± 0.036	1.786 ± 0.029	1.484 ± 0.024
x1 = 0.2037	2.434 ± 0.039	1.894 ± 0.031	1.576 ± 0.026
x1 = 0.2664	2.652 ± 0.043	2.064 ± 0.034	1.715 ± 0.028
x1 = 0.3205	2.847 ± 0.047	2.213 ± 0.037	1.851 ± 0.031
x1 = 0.3498	3.007 ± 0.05	2.328 ± 0.039	1.927 ± 0.033
x1 = 0.3669	3.042 ± 0.051	2.349 ± 0.04	1.973 ± 0.033
x1 = 0.4076	3.264 ± 0.055	2.495 ± 0.043	2.085 ± 0.036
x1 = 0.4623	3.514 ± 0.06	2.678 ± 0.047	2.228 ± 0.039
x1 = 0.5601	4 ± 0.071	3.021 ± 0.054	2.51 ± 0.045
x1 = 0.6022	4.21 ± 0.076	3.158 ± 0.058	2.624 ± 0.048
x1 = 0.6441	4.433 ± 0.081	3.312 ± 0.061	2.741 ± 0.05
x1 = 0.7071	4.778 ± 0.09	3.545 ± 0.067	2.921 ± 0.055
x1 = 0.7635	5.059 ± 0.097	3.746 ± 0.073	3.074 ± 0.059
x1 = 0.8228	5.311 ± 0.1	3.929 ± 0.078	3.238 ± 0.064
x1 = 0.8494	5.452 ± 0.11	4.008 ± 0.08	3.312 ± 0.066
x1 = 0.9137	5.74 ± 0.12	4.23 ± 0.087	3.489 ± 0.071
x1 = 0.9358	5.875 ± 0.12	4.299 ± 0.089	3.55 ± 0.073
x1 = 0.961	6.08 ± 0.12	4.384 ± 0.092	3.616 ± 0.075
